Results published in US5948786A, “Piperidinylpyrimidine derivatives” (Sumitomo Pharmaceuticals Company, Limited, priority 1996, dated 1999).

Assays:
Type in all cases: cell-based
[1] = test system: TNF α production from human peripheral blood mononuclear cells (PBMC); experiment: Inhibitory activity of compound on TNF α production from PBMC
Procedure: TNF α was induced by 10 μg/ml of LPS (E. coli O111B4, DIFCO, Detroit, Mich., USA) the cells were cultured for 18 hours at 37° C. A compound of the present invention was dissolved in DMSO and added to the culture simultaneously with LPS. […] Each well of the plate first was incubated at room temperature with biotinylated anti-mouse TNF α polyclonal antibodies (PharMingen) for 45 minutes, then with peroxidase-conjugated streptavidin (Kirkegaard & Perry Laboratories Inc., Gaitherburg, Md., USA) for 30 minutes. After each incubation, the plate was washed 4 to 8 times with PBS containing 0.2% Tween 20. TMB (Kirkegaard & Perry Laboratories Inc.) was the peroxidase substrate used and, the absorbance of each well was quantified at 450 nm by a microplatereader (Molecular Devices Corp., CA, USA). TNF α levels in the supernatant were quantified with rm-TNF α as the standard. Inhibitory activity of TNF α production was also quantified using human peripheral blood mononuclear cells(PBMC) instead of PEC's. Results are shown in table 9, 10, 11, 12, 13, 14, 15, 16, 17, 18, 19 and 20.

[2] = test system: HIV-1 LTR-CAT gene expression in Jurkat cells; experiment: PMA induced HIV-1 LTR-CAT gene expression in Jurkat cells; conditions: Homo sapiens, PMA 10 ng/ml, 24 hours
Procedure: (§1) p469, HIV-1 LTR driven CAT and pSV-Tat, Tat-expression vector were kindly provided from Dr. Gary J. Nabel (Nature Vol. 326, 711(1987))
(§2) RPMI 1640 medium (Life Technologies, Grand Island, N.Y., USA) was supplemented with heat-inactivated fetal calf serum (FBS; Sigma, St. Louis, Mo., USA).
(§3) Human T lymphoma cell line, Jurkat, was cultured in medium described above Transfection;
(§4) Introduction of plasmid DNA into cells was carried out according to the method described in Chiang, J. Li et al., Proc. Natl. Acad. Sci. Vol. 92, 5461-5464 (1995). Briefly, the cells were suspended with the medium at 2×10^7 cells/ml followed by addition 1 μg of p469 and 0.5 μg of DEAE-dextran (Sigma). In some experiments the cells were co-transfected with 0.5 μg of pSV-Tat. After 10 minutes incubation at room temperature with occasionally mixing, the cells were pulsed with electroporation apparatus at 140 V. The cells were re-suspended with the fresh medium and cultured for 20 hours at 37° C.
(§5) A compound tested was dissolved in dimethylsulfoxide at 100 mM as a stock solution. The aliquots of the stock solution were kept frozen at -20° C. Jurkat cells transfected with p469 were treated with 10 ng/ml of phorbol 12-myristate 13-acetate (PMA; Sigma) to activate HIV-1-LTR directed CAT gene transcription in the presence of the compound. In the case of cells transfected with p469 and pSV-Tat, they were simply treated with the compound. After the cells were cultured for an additional 24 hours at 37° C., the cells were washed 2 times with phosphate-buffered saline and lysed in 50 mM Tris-HCl plus 15% glycerol with repeated cycles of freeze and thaw. The cell lysates were clarified by centrifugation followed by determination of protein concentration by Bradford method (Bio-Rad, Hercules, Calif., USA). Measurement of a CAT activity in cell lysates was carried out according to a similar method described in Fridovich-Keil J. L. et. al., Cell Growth and Differentiation, Vol. 2, 67-76(1991). Equal amount (30 μg of protein) of cell lysates was incubated at 37° C. with 35 μg of acetyl co-enzyme A (GIBCO/BRL, Grand Island, Mo., USA) and 0.1 μCi of 14C-chloramphenicol (Dupont, NEN Boston, Mass., USA) in […] solution for 2 hours. Acetyl-14C-chloramphenicol was extracted with 9 volumes of ethyl acetate and fractionated on a TLC gel with 1:19 (v/v) in methanol/chloroform. The CAT activity was detected by autoradiography and quantified by an Imaging Densitometer (model GS-700; Bio-Rad).

[3] = test system: Tat induced HIV-1 LTR-CAT gene expression in Jurkat cells; experiment: Tat induced HIV-1 LTR-CAT gene expression in Jurkat cells; conditions: Homo sapiens, Tat (pSV-Tat), 24 hours
Procedure: as §1, §2, §3, §4, §5

[4] = test system: TNF α production from mouse macrophages; experiment: Inhibitory activity of compound on TNF α Production from mouse macrophages (LPS-induced PEC's); conditions: Macrophage, LPS 10 μg/ml, 18 hours
Procedure, shortened: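 Thioglycollate-elicited peritoneal macrophages from female BALB/c mice (adherent, 2×10^5 cells/well) were stimulated with 10 μg/ml LPS plus compound (final DMSO below 0.1%) for 18 h at 37°C. Supernatant TNF α was measured by sandwich ELISA (TMB, 450 nm) against a recombinant mouse TNF α standard.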

| SMILES | inhibition at 30 µM [1] [%] | inhibition at 5 µM [2] [%] | inhibition at 5 µM [3] [%] | inhibition at 30 µM [4] [%] |
| --- | --- | --- | --- | --- |
| Nc1nc(C2CCN(C(=O)c3ccc4c(c3)OCO4)CC2)c2ccccc2n1 [Example 65] | 46 | 94 | 81 | – |
| COc1ccc2nc(N)nc(C3CCN(C(=O)c4ccc5c(c4)OCO5)CC3)c2c1 [Example 117] | 43 | 92 | 36 | 54 |
| Nc1nc(C2CCN(C(=O)c3ccc4c(c3)OCO4)CC2)c2cc(Cl)ccc2n1 [Example 130] | 57 | 67 | – | 100 |
| Nc1nc(-c2ccccc2)cc(C2CCN(C(=O)c3ccc4c(c3)OCO4)CC2)n1 [Example 140] | 35 | 100 | – | 72 |
| Nc1nc(-c2ccc(Cl)cc2)cc(C2CCN(C(=O)c3ccc4c(c3)OCO4)CC2)n1 [Example 150] | 11 | 54 | – | 100 |
| COc1ccc(-c2cc(C3CCN(C(=O)c4ccc5c(c4)OCO5)CC3)nc(N)n2)cc1 [Example 157] | 37 | 81 | – | 84 |
| COc1ccc(Cc2cc(C3CCN(C(=O)c4ccc5c(c4)OCO5)CC3)nc(N)n2)cc1 [Example 210, 2-amino-4-(4-methoxybenzyl)-6-[1-(3,4-methylenedioxybenzoyl)-4-piperidinyl]pyrimidine] | 80 | 81 | 66 | 75 |
| Nc1nc(CCc2ccccc2)cc(C2CCN(C(=O)c3ccc4c(c3)OCO4)CC2)n1 [Example 259] | 68 | 25 | 51 | – |
| COc1ccc(Cc2cc(C3CCN(S(=O)(=O)Cc4ccccc4)CC3)nc(N)n2)cc1 [Example 277] | – | – | – | 32 |
| Nc1nc(C2CCN(C(=O)NCc3ccccc3)CC2)c2ccccc2n1 [Example 280, 2-amino-4-(1-benzyl-carbamoyl-4-piperidinyl)quinazoline] | – | – | – | 34 |
| COc1ccc(Cc2cc(C3CCN(C(=O)NCc4ccccc4)CC3)nc(N)n2)cc1 [Example 283, 2-amino-4-(1-benzylcarbamoyl-4-piperidinyl)-6-(4-methoxyphenylmethyl)pyrimidine] | – | – | – | 81 |
| NCCCCCCC(=O)N1CCC(c2nc(N)nc3ccccc23)CC1 [Example 284, 2-amino-4-[1-(7-aminoheptanoyl)-4-piperidinyl]quinazoline] | – | – | – | 3 |
| NCCCCCCCC(=O)N1CCC(c2nc(N)nc3ccccc23)CC1 [Example 285, 2-amino-4-[1-(8-aminooctanoyl)-4-piperidinyl]quinazoline] | – | – | – | 27 |
| NCCCCCCCCCCC(=O)N1CCC(c2nc(N)nc3ccccc23)CC1 [Example 286, 2-amino-4-[1-(11-aminoundecanoyl)-4-piperidinyl]quinazoline] | – | – | – | 67 |
| COc1ccc(Cc2cc(C3CCN(C(=O)CCN)CC3)nc(N)n2)cc1 [Example 287, 2-amino-4-[1-(3-aminopropanoyl)-4-piperidinyl]-6-(4-methoxyphenylmethyl)pyrimidine] | – | – | – | 40 |
| COc1ccc(Cc2cc(C3CCN(C(=O)c4ccc5[nH]cnc5c4)CC3)nc(N)n2)cc1 [Example 289] | 93 | – | – | – |
| COc1ccc(Cc2cc(C3CCN(C(=O)c4ccc5[nH]ccc5c4)CC3)nc(N)n2)cc1 [Example 290] | 101 | – | – | – |
| COc1ccc(Cc2cc(C3CCN(C(=O)c4ccc5c(c4)OCCO5)CC3)nc(N)n2)cc1 [Example 291] | 88 | – | – | – |

| SMILES | inhibition at 30 µM [1] [%] | inhibition at 5 µM [2] [%] | inhibition at 5 µM [3] [%] | inhibition at 30 µM [4] [%] |
| --- | --- | --- | --- | --- |
| COc1ccc(Cc2cc(C3CCN(C(=O)c4ccc(F)c(F)c4)CC3)nc(N)n2)cc1 [Example 292] | 66 | – | – | – |
| COc1ccc(Cc2cc(C3CCN(C(=O)c4ccc(O)c(OC)c4)CC3)nc(N)n2)cc1 [Example 300] | 80 | – | – | – |
| COc1ccc(Cc2cc(C3CCN(C(=O)c4ccc(OC)c(O)c4)CC3)nc(N)n2)cc1 [Example 301] | 88 | – | – | – |
| COc1ccc(Cc2cc(C3CCN(C(=O)c4ccc(O)c(O)c4)CC3)nc(N)n2)cc1 [Example 302, 2-Amino-4-[1-(3,4-dihydroxybenzoyl)-4-piperidinyl]-6-(4-methoxyphenylmethyl) pyrimidine] | 86 | – | – | – |
| Nc1nc(Cc2ccc(Br)cc2)cc(C2CCN(C(=O)c3ccc4c(c3)OCO4)CC2)n1 [Example 303, 2-Amino-4-(4-bromophenylmethyl)-6-[1-(3,4-methylenedioxybenzoyl)-4-piperidinyl]pyrimidine] | 92 | – | 65 | – |
| Nc1nc(Cc2ccccc2)cc(C2CCN(C(=O)c3ccc4c(c3)OCO4)CC2)n1 [Example 304] | 83 | – | 44 | – |
| COc1cccc(Cc2cc(C3CCN(C(=O)c4ccc5c(c4)OCO5)CC3)nc(N)n2)c1 [Example 305] | 80 | – | 72 | – |
| COc1ccc(Cc2cc(C3CCN(C(=O)c4ccc5c(c4)OCO5)CC3)nc(N)n2)cc1OC [Example 306] | 85 | 75 | 22 | – |
| COc1ccc(OC)c(Cc2cc(C3CCN(C(=O)c4ccc5c(c4)OCO5)CC3)nc(N)n2)c1 [Example 307] | 81 | 97 | 66 | – |
| COc1cc(Cc2cc(C3CCN(C(=O)c4ccc5c(c4)OCO5)CC3)nc(N)n2)cc(OC)c1 [Example 308] | 87 | – | 70 | – |
| COc1cc(Cc2cc(C3CCN(C(=O)c4ccc5c(c4)OCO5)CC3)nc(N)n2)cc(OC)c1OC [Example 309] | 65 | – | 62 | – |
| Nc1nc(Cc2ccccc2Cl)cc(C2CCN(C(=O)c3ccc4c(c3)OCO4)CC2)n1 [Example 310] | 83 | – | 67 | – |
| Nc1nc(Cc2ccc(Cl)c(Cl)c2)cc(C2CCN(C(=O)c3ccc4c(c3)OCO4)CC2)n1 [Example 311] | 69 | – | 63 | – |
| Nc1nc(Cc2ccc(Cl)cc2Cl)cc(C2CCN(C(=O)c3ccc4c(c3)OCO4)CC2)n1 [Example 312] | 57 | – | 65 | – |
| Nc1nc(Cc2c(Cl)cccc2Cl)cc(C2CCN(C(=O)c3ccc4c(c3)OCO4)CC2)n1 [Example 313] | 91 | – | 69 | – |
| Nc1nc(Cc2ccc3c(c2)OCO3)cc(C2CCN(C(=O)c3ccc4c(c3)OCO4)CC2)n1 [Example 314] | 84 | – | 76 | – |
| Nc1nc(Cc2ccc(O)cc2)cc(C2CCN(C(=O)c3ccc4c(c3)OCO4)CC2)n1 [Example 315, 2-Amino-4-(4-hydroxyphenylmethyl)-6-[1-(3,4-methylenedioxybenzoyl)-4-piperidinyl] pyrimidine] | 86 | – | – | – |
